Laboratory results as given in patent publication US6495358B1, “Sulfamide and bis-sulfamide amino acid derivatives as inhibitors of proteolytic enzymes” (Wichita State University, priority 2000, dated 2002).
Values belong to the molecule of their own block, whether it stands above or below them.

Legend:
[1] = biological target: T1, human leukocyte elastase (HLE) (Homo sapiens, UniProt P08246); assay: Human leukocyte elastase (HLE) inhibition assay, Dixon plot; format: biochemical; conditions: competitive inhibition conditions, substrate MeOSuc-AAPV-pNA, 0.1 M HEPES pH 7.25, 25° C., read-out: K1 or % Inhibition (Ki), Elastase (HLE)
T1 sequence (P08246 30-247 limits assumed): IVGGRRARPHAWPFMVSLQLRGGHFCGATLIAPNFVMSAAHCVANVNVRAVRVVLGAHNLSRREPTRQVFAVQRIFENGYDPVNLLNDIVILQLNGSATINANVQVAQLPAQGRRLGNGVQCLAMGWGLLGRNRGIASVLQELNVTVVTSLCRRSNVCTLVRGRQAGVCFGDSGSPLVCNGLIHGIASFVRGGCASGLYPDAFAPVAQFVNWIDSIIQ
Source text: Screening of compounds for protease activity is known in the art. The human leukocyte elastase (HLE), cathepsin G (Cat G) and proteinase 3 (PR3) assays have each been described in detail; see, Groutas et al. Biochemistry 36:4739 (1997). Chymase assay has also been previously reported; see, Schechter, et al., J. Biol. Chem. 268:23626 (1993).
The substrates and buffers used in the assay inhibition studies with human leukocyte elastase (HLE), cathepsin G (Cat G), proteinase 3 (PR3) (Groutas, W. C., et al., Biochemistry 36:4739 (1997) and chymase (Groutas, W. C. et al., Bioorg. Med. Chem. Lett. 9:2199 (1999) were as follows: HLE, MeOSuc-AAPV-pNA, 0.1 M HEPES buffer, pH, 7.25 in 1-5% DMSO; Cat G, Suc-AAPF-pNA, 0.1 M HEPES buffer, pH 7.5; PR3, Boc-L-Ala p-mitrophenyl ester, 0.1 M phosphate buffer, pH 6.5; chymase, Suc-AAPF-pNA, 0.45 Tris buffer, 1.8 M Na Cl, pH 8.03 and 2% DMSO. All assays were carried out at 25° C. and for all enzymes the absorbance was monitored at 410 nm, except PR 3 (348 nm).
The inhibitory activity of compound 15 toward HLE was determined under competitive inhibition conditions. (Dixon, M. Biochem. J. 20 55:70-71 (1953)). Human leukocyte elastase (HLE assay has been described in detail; see, Groutas et al. Biochemistry 36:4739 (1997).

Thermolysin = biological target: T2, Thermolysin (Bacillus thermoproteolyticus, UniProt P00800); assay: Thermolysin inhibition assay with N-[3-[2-Furyl]acryloyl]-Gly-L-Leu-NH2 as substrate; format: biochemical; conditions: 0.1 M Tris-HCl pH 7.2, 25° C.
T2 sequence (P00800 233-548): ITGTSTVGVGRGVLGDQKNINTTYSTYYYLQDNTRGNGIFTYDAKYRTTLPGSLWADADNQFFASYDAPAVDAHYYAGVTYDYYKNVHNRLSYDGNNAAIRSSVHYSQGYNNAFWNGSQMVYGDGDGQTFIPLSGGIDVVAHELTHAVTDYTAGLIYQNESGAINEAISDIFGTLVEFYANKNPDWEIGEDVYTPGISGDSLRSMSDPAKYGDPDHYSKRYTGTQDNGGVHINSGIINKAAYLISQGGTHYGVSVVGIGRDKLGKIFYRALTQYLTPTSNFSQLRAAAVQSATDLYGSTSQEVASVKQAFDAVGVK
Protocol: Thermolysin activity with or without inhibitor was measured using N-[3-[2-Furyl]acryloyl]-Gly-L-Leu-NH2 as substrate (Walsh, K. A. et al. Methods Enzymol.34:435 (1974; Nishino, N. et al. Biochemistry 17:2846 (1978). The substrate solution in 0.1 M Tris-HCl buffer (pH 7.2) containing 2% DMF was added to thermolysin in 0.1 M Tris-HCl, ph 7.2, containing 10 mM CaCl2 and the decrease in absorbance at 345 nm was monitored using a Hewlett-Packard diode array UV/VIS spectrophotometer at 25° C. Percent inhibition and/or K1 values were determined from Dixon plots (Dixon, M. Biochem, J. 55:70 (1953) at two different substrate concentrations.
The inhibitory activity of compound 20 and 30 toward thermolysin was determined under competitive inhibition conditions. Thermolysin activity with or without inhibitor was measured using N-[3-[2-Furyl]acryloyl]-Gly-L-Leu-NH2 as substrate (Walsh, K. A. et al. Methods Enzymol.34:435 (1974); Nishino, N. et al. Biochemistry 17:2846 (1978)).

Ki [1]: 21 µM
Structure (SMILES): CC(C)CC(C=O)N(Cc1ccccc1)S(=O)(=O)N(C)C (stereo not drawn) [Compound 15, N-benzyl-N-(1-formyl-3-methylbutyl)-N′,N′-dimethylfulfamide]

Structure (SMILES): CN(C)S(=O)(=O)N(CC(=O)NO)Cc1ccccc1 [Compound 20, N^2-benzyl-N^2-[(dimethylamino)sulfonyl]-N^1-hydroxyglycinabmide]
Ki (Thermolysin; competitive inhibition conditions, Dixon plots at two substrate concentrations, read-out: K1 or % Inhibition (Ki), Thermolysin): 1.2 µM

Structure (SMILES): CC(C)C[C@@H](C(=O)NO)N(Cc1ccccc1)S(N)(=O)=O [Compound 40]
K1 or % Inhibition (% inhibition), Thermolysin (Thermolysin; inhibitor concentration not given): 26% inhibition
